From US20220257595A1, “MACITENTAN FOR USE IN TREATING PORTOPULMONARY HYPERTENSION” (ACTELION PHARMACEUTICALS LTD, priority 2019, published 2022)

How the values were obtained:
patients with PoPH [1] = test: PORTICO safety: liver test and hemoglobin laboratory abnormalities; type: in vivo
From the text: For the evaluation of treatment-emergent safety endpoints in the DB phase, the observation period for each individual subject started at the time of the first administration of macitentan or placebo and ended with the start of OL treatment or 30 days after DB treatment discontinuation (whichever occurred first). The safety variables listed below apply to the DB treatment-emergent period and the macitentan treatment-emergent period. The DB treatment-emergent period was defined as the period from the DB treatment start date up to the EOT-DB+30 days or to the EOT-DB for patients entering OL. The macitentan treatment-emergent period was defined as the period from the first intake of macitentan up to end of macitentan treatment (EOMT)+30 days. EOMT was defined as EOT-DB (for patient who received macitentan only in the DB period) or EOT-OL when applicable. For patients entering OLE, the EOMT is EOT-OL. • Treatment-emergent AEs • Treatment-emergent deaths • Treatment-emergent serious adverse events (SAEs) • AEs leading to premature discontinuation of study treatment • Occurrence of post-baseline LFT (ALT and/or AST) abnormalities, classified as: • ≥3×ULN; • ≥5×ULN; • ≥8×ULN; • ≥3×ULN and <5×ULN; • […] and <8×ULN. • Occurrence of post-baseline ALT and/or AST abnormality 3×ULN and concomitant (i.e., at the same time) total bilirubin ≥2×ULN • Occurrence of post-baseline ALT and/or AST abnormality ≥3×ULN and concomitant (i.e., at the same time) total bilirubin ≥2×ULN and increased as compared to baseline • Occurrence of hemoglobin abnormalities, classified as: • ≤80 g/L, • >80 and ≤100 g/L, • decrease from baseline ≥20 g/L and <50 g/L, • decrease from baseline ≥50 g/L, • <100 g/L and concurrent (i.e., at the same time) decrease from baseline ≥20 g/L. • Other treatment-emergent marked laboratory abnormalities • Change from baseline/macitentan baseline to EOT-DB/EOMT in vital signs • Change from baseline/macitentan baseline to EOT-DB/EOMT in laboratory variables • Change from baseline/macitentan baseline to EOT-DB/EOMT in Child-Pugh classification • Change from baseline/macitentan baseline to EOT-DB/EOMT in MELD score
Treatment-emergent liver test and hemoglobin abnormalities are those that occurred during the DB treatment-emergent (SS) and macitentan treatment-emergent (MTS) periods that were not present at baseline.
For post-baseline liver test abnormalities, the following events are considered: • ALT and/or AST ≥3×ULN, • ALT and/or AST ≥5×ULN, • ALT and/or AST ≥8×ULN, • ALT and/or AST ≥3×ULN and <5×ULN, • ALT and/or AST ≥5×ULN and <8×ULN, • ALT and/or AST ≥3×ULN and concomitant (i.e., at the same time) total bilirubin ≥2×ULN. • ALT and/or AST 3×ULN and concomitant (i.e., at the same time) total bilirubin ≥2×ULN and increased as compared to baseline
The highest ALT or AST value at any post-baseline time point of assessment for DB treatment-emergent (SS) and macitentan treatment-emergent (MTS) periods was considered in the evaluation of incidences.
For the occurrence of post-baseline hemoglobin abnormalities, the following events were considered in the evaluation of incidences: • Hemoglobin ≤80 g/L, • Hemoglobin >80 and […], • Hemoglobin decrease from baseline ≥20 g/L and <50 g/L, • Hemoglobin decrease from baseline ≥50 g/L, • Hemoglobin <100 g/L and concurrent (i.e., at the same time) decrease from baseline ≥20 g/L.
The lowest hemoglobin value at any post-baseline time point of assessment for DB treatment-emergent (SS) and macitentan treatment-emergent (MTS) periods was considered in the evaluation of incidences.

patients with PoPH [2] = test: PORTICO safety: Child-Pugh classification and MELD score; type: in vivo
From the text: For the evaluation of treatment-emergent safety endpoints in the DB phase, the observation period for each individual subject started at the time of the first administration of macitentan or placebo and ended with the start of OL treatment or 30 days after DB treatment discontinuation (whichever occurred first). The safety variables listed below apply to the DB treatment-emergent period and the macitentan treatment-emergent period. The DB treatment-emergent period was defined as the period from the DB treatment start date up to the EOT-DB+30 days or to the EOT-DB for patients entering OL. The macitentan treatment-emergent period was defined as the period from the first intake of macitentan up to end of macitentan treatment (EOMT)+30 days. EOMT was defined as EOT-DB (for patient who received macitentan only in the DB period) or EOT-OL when applicable. […]

patients with PoPH [3] = test: Post-hoc: change in mPAP / PVR by baseline mPAP / PVR category; type: in vivo, human; settings: for PVR Change from baseline to Week 12, Median / PVR Week 12, Median / PVR Change from baseline to Week 12, Mean / PVR Week 12, Mean / mPAP Week 12, Median / mPAP Week 12, Mean / mPAP Change from baseline to Week 12, Median / mPAP Change from baseline to Week 12, Mean: 10 mg, Full Analysis Set
From the text: This example provides post hoc analyses of the study performed in Example 1. These analyses include: • To assess the effect of macitentan on mean pulmonary arterial pressure (mPAP) related to pre-treatment mPAP. • To assess the effect of macitentan on pulmonary vascular resistance (PVR) related to pre-treatment PVR.
The following exploratory endpoints were defined for the post hoc analyses: • mPAP change related to pre-treatment mPAP. • PVR change related to pre-treatment PVR
All analyses were performed on the full analysis set (FAS, as per randomization, N=85) and no data imputation was performed.
Risk categories are noted in Table 38. To analyze change in mPAP relative to baseline mPAP, the same mPAP categories were used as for transplant perioperative risk classification (Table 38). For the analysis of change in PVR relative to baseline PVR, waitlist mortality risk PVR categories were used (Table 38).

[4] = Phase 1, chronic hepatic impairment, varying grades of liver disease severity; cited from earlier work
[5] = DB phase, Safety set, 10 mg, N = 43, most extreme post-baseline value
[6] = single macitentan-treated patient, DB phase
[7] = single patient, DB+OL phase, malignant ascites and hepatic encephalopathy
[8] = PVR at baseline <= 450 dyn · sec/cm^5, n 12
[9] = PVR at baseline > 450 dyn · sec/cm^5, n 27
[10] = mPAP at baseline < 35 mmHg, n 2

SMILES: CCCNS(=O)(=O)Nc1ncnc(OCCOc2ncc(Br)cn2)c1-c1ccc(Br)cc1 [macitentan, N-[5-(4-Bromophenyl)-6-[2-[(5-bromo-2-pyrimidinyl)oxy]ethoxy]-4-pyrimidinyl]-N′-propylsulfamide]
- Patients with hemoglobin decreased to ≤80 g/L (patients with PoPH [1]; DB phase): none
- ALT or AST >= 5*ULN (patients with PoPH [1]; [5]): 0/43
- ALT or AST >= 5*ULN and <8*ULN (patients with PoPH [1]; [5]): 0/43
- ALT or AST >= 8*ULN (patients with PoPH [1]; [5]): 0/43
- Hemoglobin <= 80 g/L (patients with PoPH [1]; [5]): 0/43
- Patients with hemoglobin decreased to ≤100 g/L (patients with PoPH [1]; DB phase, macitentan group): 3 patients
- Patients with hemoglobin decreases of ≥20 g/L (patients with PoPH [1]; DB phase, macitentan group (12 patients)): 27.9%
- Patients with aminotransferase increase to >3×ULN (patients with PoPH [1]; DB phase, macitentan-treated): 1 patient
- ALT or AST >= 5*ULN and <8*ULN (patients with PoPH [1]; macitentan DB + OL phase, Macitentan treated set, N = 84): 0/84
- Patients with aminotransferase increase to >3×ULN (patients with PoPH [1]; macitentan DB+OL phase): 2 patients
- Patients with hemoglobin decrease of ≥50 g/L (patients with PoPH [1]; macitentan DB+OL phase): 6 patients
- Patients with hemoglobin decreased to ≤80 g/L (patients with PoPH [1]; macitentan DB+OL phase): 4 patients
- Patients with hemoglobin decreased to ≤100 g/L (patients with PoPH [1]; macitentan DB+OL phase): 13 patients
- Patients with hemoglobin decreases of ≥20 g/L (patients with PoPH [1]; macitentan DB+OL phase (31 patients)): 37.3%
- ALT in the patient with aminotransferase increase (patients with PoPH [1]; [6]): 3.1 ×ULN
- AST in the patient with aminotransferase increase (patients with PoPH [1]; [6]): 3.2 ×ULN
- Bilirubin in the patient with aminotransferase increase (patients with PoPH [1]; [6]): 2.7 ×ULN
- ALT in the additional patient with aminotransferase increase (patients with PoPH [1]; [7]): 3.6 ×ULN
- AST in the additional patient with aminotransferase increase (patients with PoPH [1]; [7]): 8.6 ×ULN
- Bilirubin in the additional patient with aminotransferase increase (patients with PoPH [1]; [7]): 11.1 ×ULN
- Macitentan-treated patients with Hy's Law range liver test abnormalities (patients with PoPH [1]; whole study): 2 patients
- Patients with worsening in Child-Pugh category (patients with PoPH [2]; DB phase, macitentan group n=23): none
- Median MELD score at Week 12 (patients with PoPH [2]; DB phase, range 6-15): 10
- Patients worsening from Child-Pugh category A to B during macitentan treatment (patients with PoPH [2]; combined DB+OL phase, patient had placebo in DB phase): 1 patient
- Macitentan-treated patients with a decrease in PVR at Week 12 compared to baseline (patients with PoPH [3]; FAS no imputation, 41 patients): 95.3%
- Macitentan-treated patients with a decrease in mPAP at Week 12 compared to baseline (patients with PoPH [3]; FAS no imputation, thirty-eight patients): 88.3%
- PVR Change from baseline to Week 12, Median (patients with PoPH [3]; [8]): −120.0 dyn · sec/cm^5
- PVR Week 12, Median (patients with PoPH [3]; [8]): 248.7 dyn · sec/cm^5
- PVR Change from baseline to Week 12, Mean (patients with PoPH [3]; PVR at baseline <= 450 dyn · sec/cm^5, n 12, SD 71.23): −116.4 dyn · sec/cm^5
- PVR Week 12, Mean (patients with PoPH [3]; PVR at baseline <= 450 dyn · sec/cm^5, n 12, SD 86.64): 264.6 dyn · sec/cm^5
- PVR Change from baseline to Week 12, Median (patients with PoPH [3]; [9]): −244.9 dyn · sec/cm^5
- PVR Week 12, Median (patients with PoPH [3]; [9]): 382.5 dyn · sec/cm^5
- PVR Change from baseline to Week 12, Mean (patients with PoPH [3]; PVR at baseline > 450 dyn · sec/cm^5, n 27, SD 125.48): −249.4 dyn · sec/cm^5
- PVR Week 12, Mean (patients with PoPH [3]; PVR at baseline > 450 dyn · sec/cm^5, n 27, SD 130.62): 400.7 dyn · sec/cm^5
- Mean (SD) decrease in mPAP at Week 12 (patients with PoPH [3]; and <45 mmHg): 5.2 (4.22) mmHg
- Mean (SD) decrease in PVR at Week 12 (patients with PoPH [3]; baseline PVR <450 dyn·s/cm^5): 116.4 (71.23) dyn·s/cm^5
- Mean (SD) decrease in PVR at Week 12 (patients with PoPH [3]; baseline PVR >450 dyn·s/cm^5): 249.4 (125.48) dyn·s/cm^5
- Mean (SD) decrease in mPAP at Week 12 (patients with PoPH [3]; baseline mPAP <35 mmHg): 2.0 (5.66) mmHg
- Mean (SD) decrease in mPAP at Week 12 (patients with PoPH [3]; baseline mPAP ≥45 mmHg): 7.8 (5.27) mmHg
- mPAP Week 12, Median (patients with PoPH [3]; mPAP at baseline 35 to < 45 mmHg, n 13): 36.0 mmHg
- mPAP Week 12, Mean (patients with PoPH [3]; mPAP at baseline 35 to < 45 mmHg, n 13, SD 3.84): 35.4 mmHg
- mPAP Change from baseline to Week 12, Median (patients with PoPH [3]; [10]): −2.0 mmHg
- mPAP Week 12, Median (patients with PoPH [3]; [10]): 29.0 mmHg
- mPAP Change from baseline to Week 12, Mean (patients with PoPH [3]; mPAP at baseline < 35 mmHg, n 2, SD 5.66): −2.0 mmHg
- mPAP Week 12, Mean (patients with PoPH [3]; mPAP at baseline < 35 mmHg, n 2, SD 8.49): 29.0 mmHg
- mPAP Week 12, Median (patients with PoPH [3]; mPAP at baseline >= 45 mmHg, n 24): 43.0 mmHg
- mPAP Week 12, Mean (patients with PoPH [3]; mPAP at baseline >= 45 mmHg, n 24, SD 7.04): 44.0 mmHg
- mPAP Change from baseline to Week 12, Median (patients with PoPH [3]; mPAP at baseline ≥ 35 to < 45 mmHg, n 13): −5.0 mmHg
- mPAP Change from baseline to Week 12, Mean (patients with PoPH [3]; mPAP at baseline ≥ 35 to < 45 mmHg, n 13, SD 4.22): −5.2 mmHg
- mPAP Change from baseline to Week 12, Median (patients with PoPH [3]; mPAP at baseline ≥ 45 mmHg, n 24): −7.5 mmHg
- mPAP Change from baseline to Week 12, Mean (patients with PoPH [3]; mPAP at baseline ≥ 45 mmHg, n 24, SD 5.27): −7.8 mmHg
- Change in PK of macitentan and its metabolites in hepatic impairment [4]: no clinically relevant change
